From the NIST ThermoML archive (doi:10.1016/j.fluid.2018.07.032) come the findings set out here.

The conditions of this data set: 1825 kPa, Liquid, Pendant drop shape.

Numbers after ± are expanded uncertainties.

For `CCCCCCCCCCCC` [dodecane] + O, the interfacial tension runs as follows: (383 K) 40 ± 0.2 mN/m; (403 K) 36.5 ± 0.2 mN/m; (423 K) 32.9 ± 0.2 mN/m; (443 K) 28.5 ± 0.2 mN/m.
Turning to `Cc1ccccc1` [toluene] + O, the interfacial tension reads like this: (383 K) 28.6 ± 0.1 mN/m; (403 K) 26.4 ± 0.1 mN/m; (423 K) 23.8 ± 0.2 mN/m; (443 K) 20.2 ± 0.2 mN/m.
